In one experiment the test system is CRL-1459. Description: MTT assay, normal cell line. The format is cell-based. Conditions: 72 h incubation, mean ± SD of three experiments. The method, then: (§1) The 3-(4,5-dimethylthiazol-2-yl)-2,5-diphenyltetrazolium bromide (MTT) assay was used to determine the sensitivity of the different CRC cells to the novel silybin derivatives (Hussein et al., [2017]; Manivannan et al., [2017]). The cells were seeded at a density of 4,000–5,000 cells/well in 96 well plates and incubated with serial dilutions of the compounds (0, 0.1, 0.3, 1, 3, 10, 30, and 100 μM). The MTT dye (4 mg/ml) was added after 72 h of incubation and incubated with the cells for an additional 4 h at 37°C. Following incubation, the media was discarded and the formazan crystals were dissolved by adding 100 μL of DMSO to each well. A DTX 880 multimode detector (Beckman Coulter Life, Indianapolis IN, USA) was used to determine the absorbance readings at a wavelength of 570 nm. The IC50 values were determined based on 3 separate experiments, with each experiment done in triplicate. The selectivity of the compounds was determined by comparing their cytotoxicity for CRC to normal epithelial cell lines (CHO, and CRL1459).
(Formazan colour is commonly taken as a measure of viable cells.)

In another experiment the test system is CHO. The experiment can be described thus: MTT assay, normal cell line. The format is cell-based, Chinese hamster. Conditions: Cricetulus griseus, 72 h incubation, mean ± SD of three experiments. The procedure: as §1
A further experiment has as its system Bak. The experiment can be described thus: Western blot in HCT116 cells. It is filed as cell-based, human. Conditions: 4 μM, overnight. The method, then: (§2) HCT116 cells were lysed to obtain cytoplasmic and nuclear protein fractions, according to the protocol used in previous publications (Alhadidi and Shah, [2017]). Briefly, the cells were seeded in and incubated with 15k for overnight at 4μM. The cells were washed using ice-cold PBS and scraped using a cell scraper and collected in 15ml tubes. The cells were centrifuged and the PBS was discarded and replaced with 400 μl of buffer A (10 mM HEPES, pH 7.9, 0.1 mM EDTA, 0.1 mM EGTA, 10 mM KCl, 1 mM dithiothreitol, and 0.5 mM phenylmethylsulfonyl fluoride) in each tube. The cells were allowed to swell under in the buffer for 15 min on ice. Subsequently, 0.1% Nonidet P-40 was added to each suspension for 1 min to disturb the plasma membrane. The nuclei were precipitated by centrifugation at 13,000 rpm for 1 min at 4°C. The cytoplasmic proteins were collected in the supernatant and stored at −80°C. Two hundred μl of Buffer B (20 mM HEPES, pH 7.9, 1 mM EDTA, 1 mM EGTA, 400 mM NaCl, 1 mM dithiothreitol, and 1 mM phenylmethylsulfonyl fluoride) was added to the pellets and left for 30 min on ice with periodic mixing. The samples were centrifuged at 13,000 rpm for 15 min at 4°C to obtain the nuclear fraction (supernatant). The bicinchoninic acid (BCA) quantification assay was used to determine the concentration of protein in the cell extracts. The Western blot was done as previously described (Tiwari et al., [2013]). Rabbit α-tubulin, 1:4,000 dilution, rabbit Bax (1:1,000), rabbit BAK (1:1,000), rabbit β-Catenin (1:4,000), rabbit DVL3 (1:4,000), mouse β-actin (1:5,000), E-cadherin (1:4,000), and N-cadherin (1:4,000), antibodies were used. Membranes were then washed and incubated for 1 h with horseradish peroxidase-labeled (HRP) anti-rabbit and anti-mouse secondary antibodies (1:5,000 dilutions). ChemiDoc Imaging Systems from Bio-Rad, (Hercules, California USA) was used to detect the blots. Finally, proteins were quantified using the image J software. Data were calculated as ratios to β-actin.

Another experiment has as its system Bax (p21 and p18). Description: Western blot in HCT116 cells. Conditions: 4 μM, overnight, p < 0.001. The format is cell-based, human. The procedure: as §2
For orientation: A western blot detects proteins with antibodies after separation by electrophoresis.

Another experiment concerns Bcl-2. The experiment can be described thus: Western blot in HCT116 cells. The format is cell-based, human. Conditions: 4 μM, overnight, p < 0.05. The method, then:
as §2

The subject of another experiment is DVL3. Description: Western blot in HCT116 cells. Conditions: 4 μM, p < 0.01 vs vehicle. It is filed as cell-based, human. The procedure:
as §2

The test system of another experiment is E-cadherin. Description: Western blot in HCT116 cells. It is filed as cell-based, human. Conditions: 4 μM, overnight. The method, then: as §2
The subject of another experiment is N-cadherin. The experiment can be described thus: Western blot in HCT116 cells. The format is cell-based, human. Conditions: 4 μM, p < 0.01 vs control. The procedure:
as §2

The next experiment concerns c-Myc. The experiment can be described thus: Western blot in HCT116 cells. The format is cell-based, human. Conditions: 4 μM, p < 0.01 vs control. The procedure:
as §2

A further experiment concerns caspase 3. Description: Western blot in HCT116 cells. The format is cell-based, human. Conditions: 4 μM, p < 0.05 vs control. The method, then:
as §2

A further experiment relates to cyclin B1. Description: Western blot in HCT116 cells. The format is cell-based, human. Conditions: 4 μM, p < 0.01. The procedure:
as §2

A further experiment concerns α-tubulin. Description: Western blot in HCT116 cells. It is filed as cell-based, human. Conditions: 4 μM, overnight, p < 0.01 vs vehicle. The procedure:
as §2

Experiment [1] concerns LOVO cells. Description: Wound healing assay. The format is cell-based, human. Conditions: 2 and 4 μM, 24 h and 48 h, vs vehicle. The procedure:
In brief, the metastatic CRC cells (LOVO) were seeded in 6 well plates and allowed to grow as a monolayer until they reached 100% confluence. Upon confluence, 200 μl sterile tips were used to create a wound by gentle scratching of the complete cell monolayer. Sterile PBS was used to wash the cells several times to remove any floating cells. Different concentrations of the test compound were prepared in the culture media and added immediately after wound formation. The closure of the wound was observed by taking pictures at different time points by an EVOS microscope. Finally, the area of the wounds at different time points was calculated using Image J software (NIH, Bethesda, Maryland, USA).

The test system of experiment [2] is LOVO cells. Description: Transwell migration assay. The format is cell-based, human. Conditions: 2 and 4 μM, 24 h, vs vehicle. The procedure: The effect of compound 15k on the invasiveness of LOVO was tested using 24 trans-well inserts with an […]. The addition of the insert to the well forms two chambers (upper and lower), where the upper chamber was used to grow the cells on the porous membrane. The lower chamber was filled with 600 μl of cell-free DMEM medium. A 200 μl of cell suspension was added to each insert and allowed to attach for 1 h. The test compound was added in different concentrations and incubated with the cells for 24 h. […] Finally, the remaining migrated cells were fixed by methanol and dyed with 0.1% crystal violet dye and observed with an EVOS microscope. The number of migrated cells was counted and compared between the treated and control cells.

The next experiment concerns β-catenin. The experiment can be described thus: Western blot in HCT116 cells (nuclear). Conditions: 4 μM, p < 0.001 vs control. The format is cell-based, human. The method, then:
as §2, with “The samples were centrifuged at 13,000 rpm for 15 min at 4°C to obtain the nuclear fraction (supernatant).” left out, “The Western blot was done as previously described (Tiwari et al., [2013]). Rabbit α-tubulin, 1:4,000 dilution, rabbit Bax (1:1,000), rabbit BAK (1:1,000), rabbit β-Catenin (1:4,000), rabbit DVL3 (1:4,000), mouse β-actin (1:5,000), E-cadherin (1:4,000), and N-cadherin (1:4,000), antibodies were used. Membranes were then washed and incubated for 1 h with horseradish peroxidase-labeled (HRP) anti-rabbit and anti-mouse secondary antibodies (1:5,000 dilutions). ChemiDoc Imaging Systems from Bio-Rad, (Hercules, California USA) was used to detect the blots.” left out

By IC50 is commonly meant the concentration that gives 50% inhibition.

For `O=C(/C=C/c1cccc(OCc2ccccc2)c1)c1ccc(O)cc1` [Compound 15k], the IC50 is 8.5 ± 0.7 µM in the experiment on CRL-1459 and 8.1 ± 1.2 µM in the experiment on CHO. In addition, the Bak levels result in the experiment with Bak is “no significant effect”. Also, the “cleavage of Bax p21 to p18” value with Bax (p21 and p18) is “induced the cleavage of the protein Bax (p 21)”. For the same molecule, the “levels of Bcl-2” value in the experiment with Bcl-2 is “significantly decreased”. The “levels of DVL3” value in the experiment with DVL3 is “significantly decreased”. For the same molecule, the “E-cadherin expression (Western blot)” value in the experiment on E-cadherin is reported as “not significantly altered”. Moreover, the “level of N-cadherin” value with N-cadherin is “significantly downregulated”. Besides, the “levels of c-Myc protein” value in the experiment with c-Myc was “significant decrease”. Moreover, the “cleavage of total caspase 3” value with caspase 3 is “induced the cleavage of total caspase”. For the same molecule, the “expression levels of cyclin B1” value in the experiment on cyclin B1 was “significant increase”. In the experiment on α-tubulin, the “expression of α-tubulin” value is “significant decrease”. Moreover, the “cell migration, wound closure” value with LOVO cells [1] is reported as “migrated significantly slower”. Also, in the experiment on LOVO cells [2], the “number of cells migrated through transwell” value is given as “significantly decreased the number of LOVO cells that migrated”. Besides, in the experiment with β-catenin, the “nuclear β-catenin full-length protein (p1 and p2)” value was “induced the cleavage of the full-length protein”.

These data come from paper PMC5974752, “Bax/Tubulin/Epithelial-Mesenchymal Pathways Determine the Efficacy of Silybin Analog HM015k in Colorectal Cancer Cell Growth and Metastasis” (Frontiers in Pharmacology, 2018).
